This is an account of results in patent publication EP2093288A1, “NOVEL DIPEPTIDE-DIGESTING ENZYME, METHOD OF PRODUCING THE SAME, METHOD OF ASSAYING GLYCATED PROTEIN BY USING THE DIPEPTIDE-DIGESTING ENZYME AND REAGENT COMPOSITION TO BE USED THEREIN” (Amano Enzyme Inc., priority 2006, dated 2008).

Type in all cases: biochemical, Sphingopyxis chilensis No. 0522
Assay [1] concerns dipeptide-degrading enzyme. The assay is described as follows: Influence of metal ions and the like on enzymatic activity (dipeptide-degrading activity, Example 3 method). The protocol: (§1) The dipeptide-degrading activity may be measured by quantifying Fru-Val or histidine formed upon the degradation of Fru-Val-His. The method for quantifying histidine is described below. The amount of enzyme degrading 1 µmol of Fru-Val-His in 1 minute is defined as 1 unit of enzymatic activity (U). The reagents (1), (2), and (3), and a substrate solution used for measuring the activity were prepared as described below.
(§2) Substrate solution: Fru-Val-His (Peptide Institute Inc.) was dissolved in 100 mM of a MOPS buffer (pH 7.0), thus obtaining 40 mM of substrate solution.
0.02 mL of 1.40 mM substrate solution and 0.16 mL of the reagent (1) were accurately dispensed and mixed, and preincubated at 37°C for 5 minutes. Thereafter, 0.02 mL of enzyme solution was accurately added to and mixed with the mixture, and allowed to react at 37°C. As a blank test, 0.02 mL of the reagent (1) was added in place of the enzyme solution. After a lapse of 10 minutes, 0.8 mL of the reagent (3) was accurately added to and mixed with the mixture, and allowed to react at 37°C. After a lapse of 15 minutes, the absorbance at 505 nm was measured, and the dipeptide-degrading activity was calculated according to the calculation formula described below. The enzyme solution was appropriately diluted with the reagent (1) such that ΔABS = (As-Ab) ≤ 0.50 Abs, and used as the sample. The symbols and numerical values in the calculation formula represents the followings. • As: absorbance of enzyme solution • Ab: absorbance of blank solution • ΔABS: As - Ab • 12.88: millimole absorptivity (mmol/L/cm) of quinone pigment at 505 nm • 10: reaction time (min) • 2: coefficient representing that one molecule of quinone pigment is formed from two molecules of H2O2 • 1: light path length (cm) • 1.0: total amount of reaction solution (mL) • 0.02: Amount of enzyme solution used for reaction (mL) • n: enzyme solution dilution ratio
Calculation formula Activity(U/mL) = ΔABS/10/12.88 × 2 × 1 × 1.0/0.02 × n [formula]
The enzymatic activity was measured in the same manner as Example 3, except that the reagent (1) was replaced with various metals and the like at specified concentrations (Table 2) and a 100 mM PIPES buffer (pH 6.2) containing 0.1% Triton X-100.

The test system of assay [2] is dipeptide-degrading enzyme. Put plainly: Reactivity in actual measurement system for glycosylated dipeptide (Example 15 method, reagents E, B, C, absorbance at 555 nm). The protocol:
A glycosylated dipeptide was measured using a glycosylated hemoglobin β chain dipeptide Fru-Val-His (Peptide Institute Inc.). The reagents B and C were prepared according to the following recipes, and used for the study. Since the specimen was a glycosylated dipeptide, no protease was necessary. Therefore, the reagent E used herein had the same composition with the reagent A except that no protease was used. However, the glycosylated dipeptide may be quantified only with the reagents B and C without using the reagent E. The dipeptide-degrading enzyme used herein is the purified enzyme obtained in Example 6.
40 mM Fru-Val-His was prepared, and diluted with a 100 mM MOPS buffer (pH 7.0), thus making 0.1, 0.2, 0.4, 0.6, and 0.8 mM Fru-Val-His solutions. To 0.01 mL each of the diluting solutions, 0.04 mL of the reagent E was added, and allowed to react at 37°C for 5 minutes. 0.1 mL of the reagent B was added to each of the reaction liquids, and allowed to react at 37°C for 10 minutes. Thereafter, 0.9 mL of the reagent C was added to each of the reaction liquids, and allowed to react at 37°C. The absorbance at 555 nm was measured, and the increase (ΔOD) of the absorbance 5 minutes after initiation of the reaction was determined. […]

Assay [3] concerns dipeptide-degrading enzyme. Put plainly: Substrate specificity: dipeptide-degrading activity measurement of Example 3 with changed substrate. To be noted: substrate changed from Fru-Val-His; 37°C, pH 6.2. As for the experimental part: as §1, §2
0.02 mL of 1.40 mM substrate solution and 0.16 mL of the reagent (1) were accurately dispensed and mixed, and preincubated at 37°C for 5 minutes. Thereafter, 0.02 mL of enzyme solution was accurately added to and mixed with the mixture, and allowed to react at 37°C. As a blank test, 0.02 mL of the reagent (1) was added in place of the enzyme solution. After a lapse of 10 minutes, 0.8 mL of the reagent (3) was accurately added to and mixed with the mixture, and allowed to react at 37°C. After a lapse of 15 minutes, the absorbance at 505 nm was measured, and the dipeptide-degrading activity was calculated according to the calculation formula described below. The enzyme solution was appropriately diluted with the reagent (1) such that ΔABS = (As-Ab) ≤ 0.50 Abs, and used as the sample. […]

Setting [4] is: Conc. 2mM, 100 mM PIPES buffer (pH 6.2), 0.1% Triton X-100, None = 100.
Where [5] appears, read: Conc. 1mM, 100 mM PIPES buffer (pH 6.2), 0.1% Triton X-100, None = 100.
[6] abbreviates: Conc. 50mM, 100 mM PIPES buffer (pH 6.2), 0.1% Triton X-100, None = 100.

Where two headings read alike, the source gives them in different places. Non-standard residues stand in square brackets, D forms with d. Residues, ends and D or L forms follow the SMILES beside them. *: point of attachment. Sta = CC(C)C[C@H](N)[C@@H](O)CC(=O)O; Isovaleryl = CC(C)CC(=O)*

With `OCCS` [2-Mercaptoethanol], the “Relative activity (%)” value in assay [1] (setting [4]) is given as 11%.
Consider `[Ba+2].[Cl-].[Cl-]` [BaCl2], for which the “Relative activity (%)” value in assay [1] (setting [5]) turned out to be 105%.
Still for that read-out and setting: next, `[Ca+2].[Cl-].[Cl-]` [CaCl2]: 162%.
As for `[Cl-].[Cl-].[Co+2]` [CoCl2], the “Relative activity (%)” value in assay [1] (setting [5]) amounted to 676%. The “influences of the metal ions and the like on the enzymatic activity” value (from here on “influences”) in assay [1] (summary in words of Table 2) is “activated”.
For `[Cl][Cu][Cl]` [CuCl2], the “Relative activity (%)” value in assay [1] (setting [5]) turned out to be 75%.
Consider `O=C(O)CN(CCN(CC(=O)O)CC(=O)O)CC(=O)O` [EDTA], for which the “influences” value in assay [1] is “deactivated”. In assay [1] (pH 6.2, 5000 µM), the “Relative activity (%)” value worked out at 1%.
Take `CC(C)C[C@H](NC(=O)[C@@H](NCC(=O)[C@@H](O)[C@H](O)[C@H](O)CO)C(C)C)C(=O)O` [Fru-Val-Leu, fructosyl valyl leucine]: the “absorbance change converted into the Fru-Val-His concentration” value in assay [2] (0.8 mM substrate, converted using Fig. 7) is recorded as 0.14 mM. This compound came in with a reactivity in assay [2] (for the 0.8 mM substrate, relative to Fru-Val-His) of 18%. Moreover, the “activity value of the dipeptide-degrading enzyme for the substrate, relative to that for Fru-Val-His” value in assay [3] was found to be 4.9%.
As for `[Cl-].[Cl-].[Mg+2]` [MgCl2], the “Relative activity (%)” value in assay [1] (setting [5]) was 261%. Moreover, in assay [1] (summary in words of Table 2), the “influences” value was “activated”.
For the compound `[Cl][Mn][Cl]` [MnCl2], the “Relative activity (%)” value in assay [1] (setting [5]) was determined as 137%.
In the case of `O=C(O)CI` [Monoiode acetate], the “Relative activity (%)” value in assay [1] (pH 6.2, 2000 µM) was determined as 111%.
For the compound `[Cl][Ni][Cl]` [NiCl2], the “Relative activity (%)” value in assay [1] (setting [5]) was 156%.
For `O=S(=O)(F)Cc1ccccc1` [PMSF], the “Relative activity (%)” value in assay [1] (setting [4]) was found to be 97%.
In the case of `CC(C)CC(=O)N[C@H](C(=O)N[C@H](C(=O)N[C@@H](CC(C)C)[C@@H](O)CC(=O)N[C@@H](C)C(=O)N[C@@H](CC(C)C)[C@@H](O)CC(=O)O)C(C)C)C(C)C` [Pepstatin A] (Isovaleryl-VV[Sta]A[Sta]-OH), the “Relative activity (%)” value in assay [1] (Conc. 10 µg/ml, 100 mM PIPES buffer (pH 6.2), 0.1% Triton X-100, None = 100) is listed as 100%.
For `CCCCCCCCCCCCOS(=O)(=O)O` [SDS], the “Relative activity (%)” value in assay [1] (setting [4]) is listed as 9%.
Take `O=P1([O-])OP(=O)([O-])OP(=O)([O-])OP(=O)([O-])OP(=O)([O-])OP(=O)([O-])O1.[Na+].[Na+].[Na+].[Na+].[Na+].[Na+]` [Sodium Hexametaphosphate]: in assay [1] (setting [4]), the “Relative activity (%)” value stood at 4%.
Regarding `O=C(O)CS` [Thioglycolic acid], the “Relative activity (%)” value in assay [1] (setting [4]) was found to be 3%.
For the compound `[Cl-].[Cl-].[Zn+2]` [ZnCl2], the “Relative activity (%)” value in assay [1] (setting [5]) amounted to 257%. In addition, the “influences” value in assay [1] (summary in words of Table 2) is given as “activated”.
On to `c1cnc2c(c1)ccc1cccnc12` [o-Phenanthroline], for which, in assay [1] (setting [4]), the “Relative activity (%)” value was determined as 0%.
Turning to `c1ccc(-c2ccccn2)nc1` [α, α'-Dipyridyl], the “Relative activity (%)” value in assay [1] (setting [4]) amounted to 1%. For the same compound, in assay [1] (summary in words of Table 2), the “influences” value is given as “deactivated”.
On to KCl, for which, in assay [1] (setting [6]), the “Relative activity (%)” value came to 97%.
On to NH4Cl, for which the “Relative activity (%)” value in assay [1] (setting [6]) is reported as 85%.
With NaCl, in assay [1] (pH 6.2, 50000 µM), the “Relative activity (%)” value was determined as 98%.
